According to PMC9395446, “First-in-human phase 1/1b study to evaluate sitravatinib in patients with advanced solid tumors” (Investigational New Drugs, 2022):
≈ marks a conversion by molar mass, not a printed value.

Legend:
VEGF-R2 = experiment: Pharmacodynamic plasma markers VEGF-A and s-VEGF-R2, exposure-response analysis; type: in vivo, human
Procedure: PK samples were collected after a single dose during the PK lead-in period and following multiple oral doses during the study. Plasma PK samples were assayed for quantification of sitravatinib. The lower limit of quantification was 0.05 ng/mL. PK parameters were determined using a noncompartmental analysis approach including maximum (peak) concentration (Cmax), time to reach Cmax following drug administration (tmax), area under the plasma concentration–time curves (AUCs), apparent total clearance of the drug from plasma after oral administration, apparent volume of distribution during the terminal phase after administration and terminal elimination half-life (t1/2). PD effects were examined by analyzing VEGF-A ligand and soluble (s)-VEGF-R2 levels in patients’ plasma samples collected before and after sitravatinib administration.

[1] = rat, in vivo, 4 weeks
Procedure: The starting dose of 10 mg QD was selected based on non-clinical, 4-week toxicology studies conducted in rats and dogs. […] The proposed human dose was based on one-tenth of the STD10 in rats corrected for body surface area (mg/m^2).

SMILES: COCCNCc1ccc(-c2cc3nccc(Oc4ccc(NC(=O)C5(C(=O)Nc6ccc(F)cc6)CC5)cc4F)c3s2)nc1 [sitravatinib, Sitravatinib]
- EC50 (VEGF-R2; Homo sapiens, plasma PD markers, drug target VEGF-R2, read-out: EC50 from exposure-response analysis): 0.0309 µg/mL (≈ 0.0491 µM)
- VEGF-A percent change from baseline (increase) (VEGF-R2; plasma, after sitravatinib administration): 200%
- Highest dose not exceeding the severely toxic dose in 10% of animals (STD10) [1]: 10 mg/kg
